{"source": "paper PMC9942557", "about": "“Bolaamphiphile Analogues of 12-bis-THA Cl2 Are Potent Antimicrobial Therapeutics with Distinct Mechanisms of Action against Bacterial, Mycobacterial, and Fungal Pathogens” (mSphere, 2022)", "key": {"P. aeruginosa PAO1": {"tested_on": "P. aeruginosa PAO1", "experiment": "Fluorescence microscopy, penetration of bolalipid", "type": "cell-based, Pseudomonas aeruginosa", "settings": "180 μM", "experimental": "P. aeruginosa PAO1 was incubated with CM2 alone or in combination with tobramycin. A single colony of bacteria was collected from a Luria-Bertani (LB) agar plate and resuspended in 10 mL of LB broth overnight at 37°C, with shaking at 150 rpm. The following morning, a 2% (vol/vol) dilution was done in fresh LB broth, and the bacteria suspension was grown at 37°C with shaking at 150 rpm until it reached an OD600 of 0.3. The surface of microscopy SuperFrost glass slides (Thermo Fisher Scientific, Massachusetts, USA) was marked with a PAP pen, in order to design two square confined areas per glass slide, where the bacteria were deposited. One hundred microliters of bacterial suspension was transferred into sterile Eppendorf tubes and incubated with equal volumes of bolalipid suspension for 1 h. The bolalipid final concentration was 0.18 mM. The fluorescent Alexa Fluor 555 conjugate of wheat germ agglutinin (WGA) (Thermo Fisher Scientific) lectin membrane dye (10 μg/mL final concentration) was added to the suspension, and the bacteria were incubated for 45 min more. At the end of incubation, 100 μL was spotted in each half of the SuperFrost glass slides and incubated for 45 min more. Glass slides were then washed three times with phosphate-buffered saline (PBS) and left to dry for 5 min before addition of one drop of Fluoromount (Sigma-Aldrich, Germany) aqueous mounting medium. […]"}, "G. vaginalis KC3": {"tested_on": "G. vaginalis KC3", "experiment": "Anaerobic broth microdilution MIC (BHI, 5% horse serum)", "type": "cell-based, Gardnerella vaginalis", "settings": "Gardnerella vaginalis, read-out: MIC"}, "G. vaginalis KC2": {"tested_on": "G. vaginalis KC2", "experiment": "Anaerobic broth microdilution MIC (BHI, 5% horse serum)", "type": "cell-based, Gardnerella vaginalis", "settings": "Gardnerella vaginalis, read-out: MIC"}, "[1]": {"tested_on": "Prevotella bivia NCTC 11156", "experiment": "Anaerobic broth microdilution MIC (BHI, 5% horse serum)", "type": "cell-based", "settings": "NCTC11156, read-out: MIC"}, "G. vaginalis NCTC 10287": {"tested_on": "G. vaginalis NCTC 10287", "experiment": "Anaerobic broth microdilution MIC (BHI, 5% horse serum)", "type": "cell-based, Gardnerella vaginalis", "settings": "Gardnerella vaginalis, NCTC10287, read-out: MIC"}, "[2]": {"experiment": "Maximum solubility in water", "type": "physicochemical", "settings": "ultrapure water, 40 °C, thermodynamic from solid", "experimental": "Stock solutions of bolalipids were prepared by dispersing the powder in ultrapure water, then stirring vigorously by vortexing, and sonicating in a 40°C bath sonicator for 20 min. The concentration of each stock solution corresponds to the highest solubility achieved in water for each bolalipid, using the method described above. DLS experiments were performed on a Malvern Zetasizer Nano (Malvern Instruments, Worcestershire, UK) in back-scattering mode at 20°C. There were three independent measurements of each sample and 12 runs for each measurement, with 10 s taken for each run. The attenuator index and measurement position were automatically adjusted. Fifty microliters of each sample was transferred into polystyrene semi-microcuvettes for determination of UV and visible wavelengths (Sarstedt)."}, "[3]": {"tested_on": "Pseudomonas aeruginosa RP73", "experiment": "In vitro pharmacodynamic (PD) assay", "settings": "P. aeruginosa RP73; combination 2:1 (wt/wt)", "description": "In vitro PD assays were performed with Pseudomonas aeruginosa RP73 cultured in Roswell Park Memorial Institute 1640 medium (RPMI) supplemented with 5% Mueller-Hinton broth (MHB) ([35]). Bacteria were cultured overnight in 10 mL of RPMI–5% MHB at 37°C and diluted just prior to plate inoculation to an OD600 of 0.002. Stock solutions of colistin or tobramycin were prepared in sterile MilliQ water at a concentration of 200× MIC. Octa-bola was prepared in methanol at 2,000× MIC and diluted in water to 200× MIC. A dilution series was made in the top row of a polypropylene 96-well plate from 200× MIC to 0.2× MIC in a volume of 100 μL, to which 100 μL of the bacterial suspension was added to have a total of 1 × 10^6 log-phase CFU in 200 μL. The first time zero sample was taken <30 s after addition of bacteria to the plate, with further samples taken at appropriate intervals thereafter. […] Fifteen microliters was removed from each well, diluted 1:1,000 in phosphate-buffered saline, and plated onto RPMI–5% MH agar plates. The plates were incubated at 37°C overnight for CFU counting.\nCFU data were log10 transformed, and the bacterial net growth rate was determined from the increase or decrease in CFU during the time of exposure to the antibiotics as the coefficient of a linear regression of log10 CFU as a function of time. The intercept of the regression was fixed by forcing the regression lines through the first CFU measurement (0 min) at a given antimicrobial concentration. The pharmacodynamic function according to Regoes et al. ([36]) describes the relationship between bacterial net growth rate (ψ) and the concentration of an antimicrobial (a): ψmax − ([ψmax − ψmin][a/zMIC])^κ/([a/zMIC]^κ − [ψmin/ψmax]). Fitting this function to the net bacterial growth rates in OriginPro 2020 (OriginLab Corporation, Northampton, MA) generates the parameters ψmin and ψmax (minimum and maximum growth rates, respectively), zMIC (the pharmacodynamic MIC), and κ (a measure of the cooperativity). […]"}}, "data": [{"smiles": "Nc1c2c([n+](CCCCCCCCCCCC[n+]3c4c(c(N)c5ccccc53)CCCC4)c3ccccc13)CCCC2", "note": "[12-bis-THA Cl2, 12,12′-(Dodecane-1,12-diyl)-bis-(9-amino-1,2,3,4-tetrahydroacridinium) chloride]", "values": [{"measurement": "bacterial integrity / accumulation of bolalipid", "setting": "P. aeruginosa PAO1", "value": "the bacteria appeared intact and the bolalipid was concentrated within the cells"}]}, {"smiles": "Cc1cc(N)c2ccccc2[n+]1CCCCCCCCCC[n+]1c(C)cc(N)c2ccccc21", "note": "[Dequalinium, dequalinium chloride, reference compound]", "values": [{"measurement": "MIC", "setting": "G. vaginalis KC3", "value": "2 to 4", "unit": "µg/mL"}, {"measurement": "MIC", "setting": "G. vaginalis KC2", "value": 4, "unit": "µg/mL"}, {"measurement": "MIC", "setting": "[1]", "value": 2, "unit": "µg/mL"}, {"measurement": "MIC", "setting": "G. vaginalis NCTC 10287", "value": 2, "unit": "µg/mL"}]}, {"smiles": "Nc1c2c([n+](CCCCCCCCCCCC[n+]3c4c(c(N)c5ccccc53)CCCCCC4)c3ccccc13)CCCCCC2", "note": "[Octa-bola]", "values": [{"measurement": "solubility at 20 min", "setting": "[2]", "value": 360, "unit": "µM"}, {"measurement": "bactericidal activity (minimum growth rate, ψmin)", "setting": "[3]", "value": "strongly bactericidal, albeit only at the highest concentration tested"}]}]}
